# In patent US12129312B2, “Peptide compound, application thereof and composition containing same” (priority 2017, dated 2024):
# Numbered stars: 1 amine (or outer) side, 2 acyl side, 3 side chain; on linkers, the order of the positions; unused ones are H or OH. Square brackets hold non-standard residues; d marks the D form. Peptide text beside a SMILES is read from it. * marks the point of attachment. Pro(trans-4-Ph) = O=C(O)[C@@H]1C[C@@H](c2ccccc2)CN1; X7 = O=C([C@@H](Cc1ccc(O)cc1)NC(=S)NCCc1ccccc1)*; Phenylacetyl(4-Ph) = O=C(Cc1ccc(-c2ccccc2)cc1)*; PEG8 = NCCOCCOCCOCCOCCOCCOCCOCCOCCC(=O)O; X5 = O=C([C@H]1c2ccccc2CCN1[*:1])[*:2]; 1Nal = N[C@@H](Cc1cccc2ccccc12)C(=O)O; 2Nal = N[C@@H](Cc1ccc2ccccc2c1)C(=O)O; dNMeY = CN[C@H](Cc1ccc(O)cc1)C(=O)O; Butanoyl(4-Ph) = O=C(CCCc1ccccc1)*; Palmitoyl = CCCCCCCCCCCCCCCC(=O)*; Tic = O=C(O)[C@@H]1Cc2ccccc2CN1; dTic = O=C(O)[C@H]1Cc2ccccc2CN1; NMeL = CN[C@@H](CC(C)C)C(=O)O; NHPhenethyl = c1ccc(CCN*)cc1; NMeS = CN[C@@H](CO)C(=O)O; Pip = O=C(O)[C@@H]1CCCCN1; Thz = O=C(O)[C@@H]1CSCN1; CO = O=C([*:1])[*:2]
# Biological target: T1, human Chemokine like receptor 1 (Homo sapiens, UniProt Q99788)
# T1 construct: host or cells: U2OS (Tango CMKLR1-bla U2OS)
# T1 sequence (Q99788 1-373): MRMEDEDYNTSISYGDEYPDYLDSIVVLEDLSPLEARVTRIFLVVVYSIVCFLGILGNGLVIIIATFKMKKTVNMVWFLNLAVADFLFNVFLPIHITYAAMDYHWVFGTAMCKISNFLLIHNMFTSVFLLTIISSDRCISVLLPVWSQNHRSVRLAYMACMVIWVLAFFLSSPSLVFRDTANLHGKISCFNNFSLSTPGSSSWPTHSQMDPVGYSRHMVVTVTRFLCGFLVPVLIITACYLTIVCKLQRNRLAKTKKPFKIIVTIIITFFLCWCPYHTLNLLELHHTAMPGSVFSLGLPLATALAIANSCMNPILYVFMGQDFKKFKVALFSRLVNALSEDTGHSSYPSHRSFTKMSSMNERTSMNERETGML
# Assay: Activation of Tango CMKLR1-bla U2OS cells (beta-lactamase FRET reporter)
# Assay type: cell-based
# Conditions: not given
# Experimental: The polypeptide sequences described above are the polypeptide sequences disclosed in the patent JP2010-229093A of BANYU PHARMA CO LTD: (D-Tyr)-Phe-Leu-Pro-(D-Ser)-Gln-Phe-(D-Ala)-Tic-Ser was used as a positive control (SEQ ID NO: 102).
# The activation of the compound on Tango™ CMKLR1-bla U2OS cells (Invitrogen Cat. nos. K1551) was tested.
# The activation of each compound in the above experiments on Tango™ CMKLR1-bla U2OS cells was determined as follows:
# Day 1: Cell Seeding on Plate
# 2. The medium was removed, and the cells were washed with DPBS twice, followed by addition of 3 mL of 0.05% trypsin, and placed in a 37° C., 5% CO2 incubator (Thermo Fisher, Waltham, Massachusetts, USA) for 3-5 minutes. After the cells were rounded, 3-5 mL of medium (medium formula: DMEM 90%, Dialyzed FBS 10%, NEAA 0.1 mM, HEPES (pH 7.3) 25 mM, Penicillin 100 U/mL, Streptomycin 100 μg/mL) was added to terminate digestion.
# 2. The digested cells were transferred to a 15 mL centrifuge tube (430790, Corning), centrifuged at 1000 rpm for 5 minutes (5810R, Eppendorf, Hamburg, Germany), and the supernatant was discarded.
# 3. 7 mL of medium (DMEM+10% FBS) was added, blowed into a single cell suspension, counted by a cell counter, and adjusted the cell suspension to a desired cell density of 250,000/mL with the medium.
# 4. The cell suspension was seeded into a 384-well cell plate (Corning 3712) in 40 μL/well to make the number of cells 10000 cells/well, and 32 μL of medium was added to the blank control.
# 5. The incubation was performed overnight at 37° C. under 5% CO2.
# Day 2: Dosing and Testing
# 1. Preparation of 200× Compound Plate
# 1.1 The test compound was formulated into a 10 mM working solution in DMSO.
# 1.2 45 μL of 10 mM test compound was added to the 2nd column of rows A to P in the Echo-384 well plate. The compound was subjected to a 3-fold dilution with Precision (30 μL of DMSO was added to the 3rd to 11th columns; 15 μL of the drug solution was pipetted from the 2nd column to the 3rd column, blown and evenly mixed; then 15 μL of the drug solution was pipetted from the 3rd column to the 4th column, blown and evenly mixed; the drugs was subjected to a 3-fold dilution to obtain 10 concentrations in total). The 1st and 12th columns of the Echo-384 well plate were supplemented with 30 μL of DMSO.
# 2. Preparation of Intermediate Plate
# 500 nL, i.e., 0.5 μL of the diluted compound (or DMSO) in the 200× compound plate was transferred into the corresponding position of V-bottom 384-well plate with Echo. 20 μL of medium was added to each well, centrifuged, shaken and evenly mixed. The concentration of the drugs in each well of the 2nd to 11th column of intermediate plate (i.e., 5× compound plate) were shown in following Table 4.
# 3.1 The cell plate was taken out from the incubator and observed under a microscope. The diluted compound or DMSO in the intermediate plate was added to the cell plate in 10 μL/well in the corresponding cell plate, and 40 μL of medium was pre-filled in each well.
# 3.2 The cells were incubated at 37° C. under 5% CO2 for 4 hours.
# 4.1 1 mM CCF4-AM, solution B, Solution C, and Solution D were used to prepare an appropriate amount of 6× detection solution. The LiveBLAzer™-FRET B/G Loading kit (K1095, Thermo Fisher, Waltham, Massachusetts, USA) kit containing CCF-4AM and solutionB, solutionC, and solutionD was also purchased from invitrogen (K1157, Thermo Fisher, Waltham, Massachusetts, USA).
# 4.2 The cells were observed under a microscope and the cell plate was equilibrated to room temperature.
# 4.3 6 μL of CCF-4AM dissolved solution A, 60 μL of solution B, 904 μL of solution C and 30 μL of solution D were pipetted in an EP tube, blown, and evenly mixed to obtain a 6× detection solution. The prepared 6× detection solution was pipetted to a 384-well plate in 10 μL/well.
row,Compound,EC50
1,"CC(C)C[C@H](NC(=O)[C@H](Cc1ccccc1)NC(=O)[C@@H](Cc1ccc(O)cc1)NC(=O)Cc1ccc(-c2ccccc2)cc1)C(=O)N1CCC[C@H]1C(=O)N[C@H](CO)C(=O)N[C@@H](CCC(N)=O)C(=O)N[C@@H](Cc1ccccc1)C(=O)N[C@H](C)C(=O)N1Cc2ccccc2C[C@H]1C(=O)N[C@@H](CO)C(=O)O [YW-77, 4-biphenylacetyl-(D-Tyr)-Phe-Leu-Pro-(D-Ser)-Gln-Phe-(D-Ala)-Tic-Ser-OH] ({Phenylacetyl(4-Ph)}-[dY]FLP[dS]QF[dA][Tic]S-OH)",53 nM
2,"CC(C)C[C@H](NC(=O)[C@H](Cc1ccccc1)NC(=O)[C@H](N)Cc1ccc(O)cc1)C(=O)N1CCCC[C@H]1C(=O)N[C@H](CO)C(=O)N[C@@H](CCC(N)=O)C(=O)N[C@@H](Cc1ccccc1)C(=O)N[C@H](C)C(=O)N1Cc2ccccc2C[C@H]1C(=O)N[C@@H](CO)C(=O)O [YW-96, (D-Tyr)-Phe-Leu-(S-Pip)-(D-Ser)-Gln-Phe-(D-Ala)-Tic-Ser] (H-[dY]FL[Pip][dS]QF[dA][Tic]S-OH; N-terminus assumed)",39 nM

# Same assay, conditions: determination by the method of Effect Embodiment 1; read-out: EC50
row,Compound,EC50
1,"CCCCCCCCCCCCCCCC(=O)NCCOCCOCCOCCOCCOCCOCCOCCOCCC(=O)NCC(=O)NCC(=O)N(C)[C@H](Cc1ccc(O)cc1)C(=O)N[C@@H](Cc1ccccc1)C(=O)N(C)[C@@H](CC(C)C)C(=O)N1CCC[C@H]1C(=O)N[C@H](CO)C(=O)N[C@@H](CCC(N)=O)C(=O)N[C@@H](Cc1ccc2ccccc2c1)C(=O)N[C@H](C)C(=O)N1Cc2ccccc2C[C@H]1C(=O)N(C)[C@@H](CO)C(=O)O [YW-178, Palm-PEG8-Gly-Gly-(D-NMe-Tyr)-Phe-(NMe-Leu)-Pro-(D-Ser)-Gln-2Nal-(D-Ala)-Tic-(NMe-Ser)] ({Palmitoyl-PEG8}-GG[dNMeY]F[NMeL]P[dS]Q[2Nal][dA][Tic][NMeS]-OH)",2.1 nM
2,"CC(C)C[C@@H](C(=O)N1CCC[C@H]1C(=O)N[C@H](CO)C(=O)N[C@@H](CCC(N)=O)C(=O)N[C@@H](Cc1ccccc1)C(=O)N[C@H](C)C(=O)N1Cc2ccccc2C[C@@H]1C(=O)N(C)[C@@H](CO)C(=O)O)N(C)C(=O)[C@H](Cc1ccccc1)NC(=O)[C@H](N)Cc1ccc(O)cc1 [YW-182, (D-Tyr)-Phe-(NMe-Leu)-Pro-(D-Ser)-Gln-Phe-(D-Ala)-(D-Tic)-(NMe-Ser)] (H-[dY]F[NMeL]P[dS]QF[dA][dTic][NMeS]-OH)",41 nM
3,"CN[C@H](Cc1ccc(O)cc1)C(=O)N[C@@H](Cc1ccccc1)C(=O)N(C)[C@@H](CC(C)C)C(=O)N1CCC[C@H]1C(=O)N[C@H](CO)C(=O)N[C@@H](CCC(N)=O)C(=O)N[C@@H](Cc1cccc2ccccc12)C(=O)N[C@H](C)C(=O)N1Cc2ccccc2C[C@H]1C(=O)N(C)[C@@H](CO)C(=O)O [YW-162, (D-NMe-Tyr)-Phe-(NMe-Leu)-Pro-(D-Ser)-Gln-1Nal-(D-Ala)-Tic-NMeSer-OH] (H-[dNMeY]F[NMeL]P[dS]Q[1Nal][dA][Tic][NMeS]-OH)",2.6 nM
4,"CC(C)C[C@@H](C(=O)N1CCC[C@H]1C(=O)N[C@H](CO)C(=O)N[C@@H](CCC(N)=O)C(=O)N[C@@H](Cc1ccccc1)C(=O)N[C@H](C)C(=O)N1CCc2ccccc2[C@@H]1C(=O)N[C@@H](CO)C(=O)O)N(C)C(=O)[C@H](Cc1ccccc1)NC(=O)[C@H](N)Cc1ccc(O)cc1 [YW-153, (D-Tyr)-Phe-(NMe-Leu)-Pro-(D-Ser)-Gln-Phe-(D-Ala)-D-Ti1c-Ser-OH] (H-[dY]F[NMeL]P[dS]QF[dA][X5]S-OH)",8.5 nM
5,"CC(C)C[C@H](NC(=O)[C@H](Cc1ccccc1)NC(=O)[C@@H](Cc1ccc(O)cc1)NC(=O)NCCc1ccccc1)C(=O)N1CCC[C@H]1C(=O)N[C@H](CO)C(=O)N[C@@H](CCC(N)=O)C(=O)N[C@@H](Cc1ccccc1)C(=O)N[C@H](C)C(=O)N1Cc2ccccc2C[C@H]1C(=O)N[C@@H](CO)C(=O)O [YW-72, Phenethylcarbamoyl-(D-Tyr)-Phe-Leu-Pro-(D-Ser)-Gln-Phe-(D-Ala)-Tic-Ser-OH] ({NHPhenethyl-CO}-[dY]FLP[dS]QF[dA][Tic]S-OH)",45 nM
6,"CC(C)C[C@H](NC(=O)[C@H](Cc1ccccc1)NC(=O)[C@H](N)Cc1ccc(O)cc1)C(=O)N1CSC[C@H]1C(=O)N[C@H](CO)C(=O)N[C@@H](CCC(N)=O)C(=O)N[C@@H](Cc1ccccc1)C(=O)N[C@H](C)C(=O)N1Cc2ccccc2C[C@H]1C(=O)N[C@@H](CO)C(=O)O [YW-114, (D-Tyr)-Phe-Leu-Thz-(D-Ser)-Gln-Phe-(D-Ala)-Tic-Ser-OH] (H-[dY]FL[Thz][dS]QF[dA][Tic]S-OH)",5 nM

# Continued, values first:
row,EC50,Compound
1,28 nM,"CC(C)C[C@H](NC(=O)[C@H](Cc1ccccc1)NC(=O)[C@@H](Cc1ccc(O)cc1)NC(=S)NCCc1ccccc1)C(=O)N1CCC[C@H]1C(=O)N[C@H](CO)C(=O)N[C@@H](CCC(N)=O)C(=O)N[C@@H](Cc1ccccc1)C(=O)N[C@H](C)C(=O)N1Cc2ccccc2C[C@H]1C(=O)N[C@@H](CO)C(=O)O [YW-73, Phenethylcarbamothioyl-(D-Tyr)-Phe-Leu-Pro-(D-Ser)-Gln-Phe-(D-Ala)-Tic-Ser-OH] (X7-FLP[dS]QF[dA][Tic]S-OH)"
2,50 nM,"CC(C)C[C@H](NC(=O)[C@H](Cc1ccccc1)NC(=O)[C@H](N)Cc1ccccc1)C(=O)N1CCC[C@H]1C(=O)N[C@H](CO)C(=O)N[C@@H](CCC(N)=O)C(=O)N[C@@H](Cc1ccccc1)C(=O)N[C@H](C)C(=O)N1Cc2ccccc2C[C@H]1C(=O)N[C@@H](CO)C(=O)O [YW-97, (D-Phe)-Phe-Leu-Pro-(D-Ser)-Gln-Phe-(D-Ala)-Tic-Ser-OH] (H-[dF]FLP[dS]QF[dA][Tic]S-OH)"
3,9.4 nM,"CN[C@H](Cc1ccc(O)cc1)C(=O)N[C@@H](Cc1ccccc1)C(=O)N[C@@H](CC(C)C)C(=O)N1CCC[C@H]1C(=O)N[C@H](CO)C(=O)N[C@@H](CCC(N)=O)C(=O)N[C@@H](Cc1ccccc1)C(=O)N[C@H](C)C(=O)N1Cc2ccccc2C[C@H]1C(=O)N[C@@H](CO)C(=O)O [YW-103, (D-NMe-Tyr)-Phe-Leu-Pro-(D-Ser)-Gln-Phe-(D-Ala)-Tic-Ser-OH] (H-[dNMeY]FLP[dS]QF[dA][Tic]S-OH; N-terminus assumed)"
4,50 nM,"CC(C)C[C@H](NC(=O)[C@H](Cc1ccccc1)NC(=O)[C@@H](Cc1ccc(O)cc1)NC(=O)CCCc1ccccc1)C(=O)N1CCC[C@H]1C(=O)N[C@H](CO)C(=O)N[C@@H](CCC(N)=O)C(=O)N[C@@H](Cc1ccccc1)C(=O)N[C@H](C)C(=O)N1Cc2ccccc2C[C@H]1C(=O)N[C@@H](CO)C(=O)O [YW-75, 4-Phenylbutanoyl-(D-Tyr)-Phe-Leu-Pro-(D-Ser)-Gln-Phe-(D-Ala)-Tic-Ser-OH] ({Butanoyl(4-Ph)}-[dY]FLP[dS]QF[dA][Tic]S-OH)"
5,8.6 nM,"CC(C)C[C@H](NC(=O)[C@H](Cc1ccccc1)NC(=O)[C@H](N)Cc1ccc(O)cc1)C(=O)N1C[C@H](c2ccccc2)C[C@H]1C(=O)N[C@H](CO)C(=O)N[C@@H](CCC(N)=O)C(=O)N[C@@H](Cc1ccccc1)C(=O)N[C@H](C)C(=O)N1Cc2ccccc2C[C@H]1C(=O)N[C@@H](CO)C(=O)O [YW-113, (D-Tyr)-Phe-Leu-Pro(4-Ph)-(D-Ser)-Gln-Phe-(D-Ala)-Tic-Ser-OH] (H-[dY]FL[Pro(trans-4-Ph)][dS]QF[dA][Tic]S-OH)"
